US8394820B2, “N-azabicyclic carboxamide derivatives, preparation thereof and therapeutic use thereof” (Sanofi, priority 2008, dated 2013)

Test system: not given
Assay: not given
Conditions: not given

| Compound | melting point [°C] |
| --- | --- |
| Cc1nc2cc(NC(=O)c3cc4cc(F)ccc4n3Cc3cccc(F)c3)ccn2c1-c1ccccc1 | 305 to 307 |
| O=C(Nc1ccn2cc(-c3cccs3)nc2c1)c1cc2cc(F)ccc2n1Cc1cccc(F)c1 | 259 to 260 |
| CC(C)(C)c1cn2ccc(NC(=O)c3cc4cc(F)ccc4n3Cc3cccc(F)c3)cc2n1 | 327 to 328 |
| Cc1nc2cc(NC(=O)c3cc4cc(C(F)(F)F)ccc4n3Cc3cccc(F)c3)ccn2c1C | 280 to 281 |
| CCc1cn2ccc(NC(=O)c3cc4cc(C(F)(F)F)cnc4n3Cc3cccc(F)c3)cc2n1 | 264 to 265 |
| Cc1nc2cc(NC(=O)c3cc4cc(C(F)(F)F)cnc4n3Cc3cccc(F)c3)ccn2c1C | 287 to 288 |
| O=C(Nc1ccn2cc(CO)nc2c1)c1cc2cc(C(F)(F)F)ccc2n1Cc1cccc(F)c1 | 254 to 255 |
| O=C(Nc1ccn2cc(CO)nc2c1)c1cc2cc(C(F)(F)F)cnc2n1Cc1cccc(F)c1 | 238 to 240 |
| Cc1cn2ccc(NC(=O)c3cc4cc(F)ccc4n3Cc3cccc(F)c3)cc2n1 | 267 to 268 |
| CCOC(=O)c1cn2nc(NC(=O)c3cc4cc(F)ccc4n3Cc3cccc(F)c3)ccc2n1 | 267 to 268 |
| CCOC(=O)c1cn2cc(NC(=O)c3cc4cc(F)ccc4n3Cc3cccc(F)c3)ccc2n1 | 242 to 245 |
| Cc1cn2cc(NC(=O)c3cc4cc(F)ccc4n3Cc3cccc(F)c3)ccc2n1 | 200 to 203 |
| O=C(Nc1ccc2nc(CO)cn2c1)c1cc2cc(F)ccc2n1Cc1cccc(F)c1 | 247 to 249 |
| CCc1cn2cc(NC(=O)c3cc4cc(F)ccc4n3Cc3cccc(F)c3)ccc2n1 | 278 to 279 |
| O=C(Nc1ccc2nc(-c3cccs3)cn2c1)c1cc2cc(F)ccc2n1Cc1cccc(F)c1 | 316 to 318 |
| CC(C)(C)c1cn2cc(NC(=O)c3cc4cc(F)ccc4n3Cc3cccc(F)c3)ccc2n1 | 190 to 192 |
| COCc1cn2ccc(NC(=O)c3cc4cc(F)ccc4n3Cc3cccc(F)c3)cc2n1 | 215 to 216 |
| O=C(Nc1ccn2cc(CO)nc2c1)c1cc2cc(F)ccc2n1Cc1cccc(F)c1 | 244 to 245 |
| Cc1cc2ncc(NC(=O)c3cc4cc(F)ccc4n3Cc3cccc(F)c3)cn2n1 [Compound 20, N-(2-Methylpyrazolo[1,5-a]pyrimidin-6-yl)-5-fluoro-1-[(3-fluorophenyl)methyl]-1H-indole-2-carboxamide] | 267 to 268 |

Target: T1, TRPV1 receptor (Rattus norvegicus, UniProt O35433)
T1 construct: DRG neurones naturally express the TRPV1 receptor; endogenous in cells; host or cells: primary culture of newborn (1-day-old) rat dorsal root ganglion neurones
Assay: Test of inhibition of the current induced with capsaicin on rat DRGs (whole-cell patch-clamp)
Format: cell-based
Conditions: compound at 1 nM; inhibition of control capsaicin response; primary culture of newborn rat DRG neurones
Description: Test of Inhibition of the Current Induced with Capsaicin on Rat DRGs • Primary culture of rat dorsal root ganglion (DRG) cells:
DRG neurones naturally express the TRPV1 receptor.
The primary cultures of newborn rat DRGs are prepared using 1-day-old rats. Briefly, after dissection, the ganglions are trypsinized and the cells dissociated by mechanical trituration. The cells are resuspended in an Eagle basal culture medium containing 10% foetal calf serum, 25 mM KCl, 2 mM glutamine, 100 μg/ml gentamicin and 50 ng/ml of NGF, and then deposited on glass slides coated with laminin (0.25×10^6 cells per slide), which are then placed in Corning 12-well dishes. The cells are incubated at 37° C. in a humidified atmosphere containing 5% CO2 and 95% air. […]
The measuring chambers (volume 800 μl) containing the cell preparation are placed on the platform of an inverted microscope (Olympus IMT2) equipped with Hoffman optics (Modulation Contrast, New York) and observed at a magnification of 400×. […] The overall currents (membrane potential set at −60 mV) are recorded with an Axopatch 1D amplifier (Axon Instruments, Foster City, Calif.), connected to a PC running the Pclamp8 software (Axon Instrument). The current plots are recorded on paper and simultaneously digitized (sampling frequency 15 to 25 Hz) and acquired on the hard drive of the PC. […]

T1 sequence (O35433 whole entry): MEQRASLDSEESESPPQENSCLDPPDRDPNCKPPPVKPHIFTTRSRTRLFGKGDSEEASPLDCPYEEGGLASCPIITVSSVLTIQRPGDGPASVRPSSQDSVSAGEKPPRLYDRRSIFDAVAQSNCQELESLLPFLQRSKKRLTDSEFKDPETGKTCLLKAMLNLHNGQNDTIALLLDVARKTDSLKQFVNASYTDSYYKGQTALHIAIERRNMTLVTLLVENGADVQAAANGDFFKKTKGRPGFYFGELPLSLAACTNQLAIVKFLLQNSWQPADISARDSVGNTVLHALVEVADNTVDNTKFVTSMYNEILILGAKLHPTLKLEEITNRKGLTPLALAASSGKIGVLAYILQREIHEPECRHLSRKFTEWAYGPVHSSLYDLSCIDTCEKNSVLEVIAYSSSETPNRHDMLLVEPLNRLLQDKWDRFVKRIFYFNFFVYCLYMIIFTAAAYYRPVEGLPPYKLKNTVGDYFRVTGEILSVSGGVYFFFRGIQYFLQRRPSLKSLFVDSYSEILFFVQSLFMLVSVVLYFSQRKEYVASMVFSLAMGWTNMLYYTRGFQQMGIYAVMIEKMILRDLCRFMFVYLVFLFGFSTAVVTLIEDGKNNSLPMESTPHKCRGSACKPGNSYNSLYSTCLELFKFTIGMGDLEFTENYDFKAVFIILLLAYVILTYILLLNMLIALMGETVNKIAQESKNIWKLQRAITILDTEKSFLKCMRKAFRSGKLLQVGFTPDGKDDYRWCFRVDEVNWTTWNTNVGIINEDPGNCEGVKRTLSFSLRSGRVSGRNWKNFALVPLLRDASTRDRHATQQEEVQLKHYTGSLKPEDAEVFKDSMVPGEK

| Compound | inhibition at 0.001 µM [%] |
| --- | --- |
| Cc1nc2cc(NC(=O)c3cc4cc(F)ccc4n3Cc3cccc(F)c3)ccn2c1C [Compound 1, N-(2,3-Dimethylimidazo[1,2-a]pyrid-7-yl)-5-fluoro-1-[(3-fluorophenyl)methyl]-1H-indole-2-carboxamide] | 81.5 |

Same assay, conditions: compound at 100 nM; inhibition of control capsaicin response; primary culture of newborn rat DRG neurones

| Compound | inhibition at 0.1 µM [%] |
| --- | --- |
| Cc1cc2ncc(NC(=O)c3cc4cc(F)ccc4n3Cc3cccc(F)c3)cn2n1 [Compound 20, N-(2-Methylpyrazolo[1,5-a]pyrimidin-6-yl)-5-fluoro-1-[(3-fluorophenyl)methyl]-1H-indole-2-carboxamide] | 80 |
